Measured values: US20250017964A1, “ENGINEERING OR INDUCING PDGF AND/OR PDGFR SIGNALING TO ENHANCE NK CELL THERAPY” (City of Hope, priority 2021, published 2025)

Test system: PDGF-D
Assay: PDGF-D expression in NK cells (qPCR, flow cytometry, immunoblotting, ELISA)
Assay type: cell-based, human
Procedure: FIGS. 5A-5J. IL-15 induces PDGF-D expression in an autocrine manner. (A) mRNA levels of PDGFA, PDGFB, PDGFC, and PDGF-D in T cells, B cells, and NK cells were analyzed using the BioGPS online tool. (B) mRNA levels of PDGFA, PDGFB, PDGFC, and PDGF-D in T cells, B cells, and NK cells were examined by qPCR (n=10). (C) Primary NK cells were treated with IL-15 (10 ng/ml) for the indicated times. mRNA levels of PDGF-D were examined by qPCR (n=3). (D-E) Representative dot plots and percentages of PDGF-D levels in NK cells after IL-15 (50 ng/ml) treatment for 24 h. Resting NK cells were used as control (n=5). […] (I-J) Binding of p65 to the PDGF-D promoter in IL-15 treated (I) or resting NK cells (J) as determined by ChIP-qPCR (n=3). Data represent three independent experiments. Data shown are means±SD. […]
Cells were stained with the indicated cell-surface markers and/or fixed/permeabilized using a Fixation/Permeabilization Kit (eBioscience). […] Data were analyzed using NovoExpress software (Agilent Technologies).
RNA was isolated using an RNeasy Mini Kit (QIAGEN) and reversely transcribed to cDNA with a PrimeScript RT Reagent Kit with gDNA Eraser (Takara Bio) according to the manufacturer's protocol. mRNA expression levels were analyzed using SYBR Green qPCR Master Mix and a QuantStudio 12K Flex Real-Time PCR System (both from Thermo Fisher Scientific). […]

## IL-15: recombinant human IL-15 (200-15); recombinant murine IL-15 in the mouse NK cell test
IL-15 10 ng/ml, qPCR
  mRNA levels of PDGF-D in NK cells: significantly increased
IL-15 50 ng/ml 24 h, flow cytometry, immunoblotting, ELISA
  protein levels of PDGF-D in NK cells: significantly increased
